According to ChEMBL document CHEMBL5291721, “A preclinical secondary pharmacology resource illuminates target-adverse drug reaction associations of marketed drugs” (Nat Commun, 2023):

How the values were obtained:
Glucocorticoid receptor = target: T1, Glucocorticoid receptor (Homo sapiens, UniProt P04150)
T1 sequence (P04150 whole entry): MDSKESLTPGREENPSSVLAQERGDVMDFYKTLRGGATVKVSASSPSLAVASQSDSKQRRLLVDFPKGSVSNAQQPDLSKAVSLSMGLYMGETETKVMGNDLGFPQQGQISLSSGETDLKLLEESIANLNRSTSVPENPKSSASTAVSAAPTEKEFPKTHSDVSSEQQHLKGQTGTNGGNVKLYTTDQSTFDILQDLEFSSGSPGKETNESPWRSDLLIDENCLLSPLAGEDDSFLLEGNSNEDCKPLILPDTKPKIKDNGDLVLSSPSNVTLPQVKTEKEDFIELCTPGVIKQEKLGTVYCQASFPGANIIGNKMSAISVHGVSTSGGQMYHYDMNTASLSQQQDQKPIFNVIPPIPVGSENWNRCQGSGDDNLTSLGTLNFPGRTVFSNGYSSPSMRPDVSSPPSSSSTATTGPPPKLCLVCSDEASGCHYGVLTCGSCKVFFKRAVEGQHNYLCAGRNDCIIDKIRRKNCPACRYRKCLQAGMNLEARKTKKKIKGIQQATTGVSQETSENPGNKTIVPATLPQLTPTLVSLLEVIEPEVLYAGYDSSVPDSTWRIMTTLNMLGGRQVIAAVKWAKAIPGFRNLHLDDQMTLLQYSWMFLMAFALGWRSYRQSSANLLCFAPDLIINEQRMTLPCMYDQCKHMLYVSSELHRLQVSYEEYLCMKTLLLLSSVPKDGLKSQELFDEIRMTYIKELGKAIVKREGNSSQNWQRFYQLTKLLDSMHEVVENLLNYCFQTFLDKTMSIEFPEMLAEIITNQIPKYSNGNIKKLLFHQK

[1] = target: T2, Gamma-aminobutyric acid receptor subunit alpha-1 (Rattus norvegicus, UniProt P62813); assay type: functional
T2 sequence (P62813 whole entry): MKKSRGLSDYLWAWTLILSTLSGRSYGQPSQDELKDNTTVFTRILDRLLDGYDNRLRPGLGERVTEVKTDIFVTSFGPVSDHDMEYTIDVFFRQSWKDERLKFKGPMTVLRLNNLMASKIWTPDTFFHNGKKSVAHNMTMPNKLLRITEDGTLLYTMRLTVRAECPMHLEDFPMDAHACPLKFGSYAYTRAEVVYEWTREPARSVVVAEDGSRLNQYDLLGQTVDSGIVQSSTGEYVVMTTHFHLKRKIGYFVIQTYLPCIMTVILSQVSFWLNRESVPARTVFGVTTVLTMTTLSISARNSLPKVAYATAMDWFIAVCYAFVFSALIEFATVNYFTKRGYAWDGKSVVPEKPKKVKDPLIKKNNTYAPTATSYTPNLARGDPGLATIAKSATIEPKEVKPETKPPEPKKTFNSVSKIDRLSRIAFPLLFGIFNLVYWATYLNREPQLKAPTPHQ

[2] = target: 3',5'-cyclic-AMP phosphodiesterase 4D (Homo sapiens, UniProt Q08499); assay type: functional
3',5'-cyclic-AMP phosphodiesterase 4D, sequence (Q08499 whole entry): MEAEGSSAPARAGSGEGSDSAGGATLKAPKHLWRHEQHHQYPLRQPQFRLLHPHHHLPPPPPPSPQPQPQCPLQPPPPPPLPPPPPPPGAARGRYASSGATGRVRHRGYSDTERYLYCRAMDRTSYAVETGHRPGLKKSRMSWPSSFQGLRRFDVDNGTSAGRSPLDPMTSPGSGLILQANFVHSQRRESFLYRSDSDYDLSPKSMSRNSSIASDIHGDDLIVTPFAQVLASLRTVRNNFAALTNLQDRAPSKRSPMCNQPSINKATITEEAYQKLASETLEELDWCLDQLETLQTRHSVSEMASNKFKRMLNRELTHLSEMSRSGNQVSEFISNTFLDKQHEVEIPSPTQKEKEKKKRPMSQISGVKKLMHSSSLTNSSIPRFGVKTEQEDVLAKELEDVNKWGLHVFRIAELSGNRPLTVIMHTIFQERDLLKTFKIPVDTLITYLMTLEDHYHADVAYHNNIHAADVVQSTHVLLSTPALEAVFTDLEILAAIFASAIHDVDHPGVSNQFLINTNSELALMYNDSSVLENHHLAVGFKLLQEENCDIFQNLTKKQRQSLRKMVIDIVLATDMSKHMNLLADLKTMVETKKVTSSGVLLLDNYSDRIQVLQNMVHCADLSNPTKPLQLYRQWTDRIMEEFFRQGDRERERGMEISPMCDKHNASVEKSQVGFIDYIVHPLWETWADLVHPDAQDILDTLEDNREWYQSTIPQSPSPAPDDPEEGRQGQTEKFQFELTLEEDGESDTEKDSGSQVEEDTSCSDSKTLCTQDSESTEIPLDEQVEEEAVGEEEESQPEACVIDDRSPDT

[3] = target: 5-hydroxytryptamine receptor 2B (Homo sapiens, UniProt P41595); assay type: functional, cell-based
5-hydroxytryptamine receptor 2B, sequence (P41595 whole entry): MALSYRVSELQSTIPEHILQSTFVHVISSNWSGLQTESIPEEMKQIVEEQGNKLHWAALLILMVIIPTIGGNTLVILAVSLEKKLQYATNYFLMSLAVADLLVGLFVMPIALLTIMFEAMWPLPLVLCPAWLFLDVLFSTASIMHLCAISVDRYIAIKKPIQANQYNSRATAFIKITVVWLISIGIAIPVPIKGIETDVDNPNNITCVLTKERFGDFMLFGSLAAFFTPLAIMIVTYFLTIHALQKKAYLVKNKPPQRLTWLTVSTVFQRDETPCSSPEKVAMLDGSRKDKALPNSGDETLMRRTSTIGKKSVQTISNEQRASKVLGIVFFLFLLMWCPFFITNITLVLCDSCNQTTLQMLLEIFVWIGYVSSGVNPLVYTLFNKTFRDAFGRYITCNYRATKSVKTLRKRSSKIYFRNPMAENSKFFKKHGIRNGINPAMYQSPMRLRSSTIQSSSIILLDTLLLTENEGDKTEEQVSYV

Melanocortin receptor 3 = Melanocortin receptor 3 (Homo sapiens, UniProt P41968)
Melanocortin receptor 3, sequence (P41968 whole entry): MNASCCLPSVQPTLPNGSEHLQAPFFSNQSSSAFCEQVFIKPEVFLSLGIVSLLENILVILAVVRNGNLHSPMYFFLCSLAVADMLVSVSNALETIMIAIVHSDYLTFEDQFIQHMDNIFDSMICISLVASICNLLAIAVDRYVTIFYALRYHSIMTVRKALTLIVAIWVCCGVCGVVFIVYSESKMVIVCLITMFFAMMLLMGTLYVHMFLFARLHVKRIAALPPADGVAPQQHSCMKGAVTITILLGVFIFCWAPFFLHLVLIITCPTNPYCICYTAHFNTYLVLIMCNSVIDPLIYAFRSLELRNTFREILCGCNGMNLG

[4] = target: T2, Gamma-aminobutyric acid receptor subunit alpha-1
[5] = target: T3, Prostaglandin G/H synthase 1 (Rattus norvegicus, UniProt Q63921); assay type: functional
T3 sequence (Q63921 whole entry): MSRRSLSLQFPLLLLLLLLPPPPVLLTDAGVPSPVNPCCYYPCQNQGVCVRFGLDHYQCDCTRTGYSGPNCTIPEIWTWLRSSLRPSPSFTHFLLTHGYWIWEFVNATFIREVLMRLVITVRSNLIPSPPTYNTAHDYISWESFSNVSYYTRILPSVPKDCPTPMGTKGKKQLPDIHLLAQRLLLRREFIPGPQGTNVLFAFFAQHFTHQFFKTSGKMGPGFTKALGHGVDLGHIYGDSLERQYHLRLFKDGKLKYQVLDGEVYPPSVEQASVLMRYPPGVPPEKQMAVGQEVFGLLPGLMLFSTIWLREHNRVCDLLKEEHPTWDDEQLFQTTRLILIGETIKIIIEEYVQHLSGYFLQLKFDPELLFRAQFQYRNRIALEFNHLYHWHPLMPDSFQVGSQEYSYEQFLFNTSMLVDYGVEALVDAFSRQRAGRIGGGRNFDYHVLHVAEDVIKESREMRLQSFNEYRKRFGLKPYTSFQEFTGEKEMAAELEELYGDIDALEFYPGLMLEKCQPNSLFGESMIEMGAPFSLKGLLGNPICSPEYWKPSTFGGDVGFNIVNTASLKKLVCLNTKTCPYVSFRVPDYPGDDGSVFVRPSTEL

[6] = target: T4, Alpha-2A adrenergic receptor (Homo sapiens, UniProt P08913); assay type: functional, cell-based
T4 sequence (P08913 whole entry): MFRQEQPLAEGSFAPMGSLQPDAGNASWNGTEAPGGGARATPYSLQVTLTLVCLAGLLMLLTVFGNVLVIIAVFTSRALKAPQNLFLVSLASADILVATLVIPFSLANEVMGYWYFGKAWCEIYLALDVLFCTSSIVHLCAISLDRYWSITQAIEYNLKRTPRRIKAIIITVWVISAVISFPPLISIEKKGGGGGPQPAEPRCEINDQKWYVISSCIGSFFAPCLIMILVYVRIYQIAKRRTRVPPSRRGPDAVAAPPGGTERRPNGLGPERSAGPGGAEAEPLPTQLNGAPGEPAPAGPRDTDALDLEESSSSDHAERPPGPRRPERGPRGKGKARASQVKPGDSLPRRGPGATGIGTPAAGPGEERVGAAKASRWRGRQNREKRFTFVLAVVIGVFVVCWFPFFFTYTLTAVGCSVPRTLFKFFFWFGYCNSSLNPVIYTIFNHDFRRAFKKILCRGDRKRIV

[7] = target: cGMP-inhibited 3',5'-cyclic phosphodiesterase 3A (Homo sapiens, UniProt Q14432); assay type: functional
cGMP-inhibited 3',5'-cyclic phosphodiesterase 3A, sequence (Q14432 whole entry): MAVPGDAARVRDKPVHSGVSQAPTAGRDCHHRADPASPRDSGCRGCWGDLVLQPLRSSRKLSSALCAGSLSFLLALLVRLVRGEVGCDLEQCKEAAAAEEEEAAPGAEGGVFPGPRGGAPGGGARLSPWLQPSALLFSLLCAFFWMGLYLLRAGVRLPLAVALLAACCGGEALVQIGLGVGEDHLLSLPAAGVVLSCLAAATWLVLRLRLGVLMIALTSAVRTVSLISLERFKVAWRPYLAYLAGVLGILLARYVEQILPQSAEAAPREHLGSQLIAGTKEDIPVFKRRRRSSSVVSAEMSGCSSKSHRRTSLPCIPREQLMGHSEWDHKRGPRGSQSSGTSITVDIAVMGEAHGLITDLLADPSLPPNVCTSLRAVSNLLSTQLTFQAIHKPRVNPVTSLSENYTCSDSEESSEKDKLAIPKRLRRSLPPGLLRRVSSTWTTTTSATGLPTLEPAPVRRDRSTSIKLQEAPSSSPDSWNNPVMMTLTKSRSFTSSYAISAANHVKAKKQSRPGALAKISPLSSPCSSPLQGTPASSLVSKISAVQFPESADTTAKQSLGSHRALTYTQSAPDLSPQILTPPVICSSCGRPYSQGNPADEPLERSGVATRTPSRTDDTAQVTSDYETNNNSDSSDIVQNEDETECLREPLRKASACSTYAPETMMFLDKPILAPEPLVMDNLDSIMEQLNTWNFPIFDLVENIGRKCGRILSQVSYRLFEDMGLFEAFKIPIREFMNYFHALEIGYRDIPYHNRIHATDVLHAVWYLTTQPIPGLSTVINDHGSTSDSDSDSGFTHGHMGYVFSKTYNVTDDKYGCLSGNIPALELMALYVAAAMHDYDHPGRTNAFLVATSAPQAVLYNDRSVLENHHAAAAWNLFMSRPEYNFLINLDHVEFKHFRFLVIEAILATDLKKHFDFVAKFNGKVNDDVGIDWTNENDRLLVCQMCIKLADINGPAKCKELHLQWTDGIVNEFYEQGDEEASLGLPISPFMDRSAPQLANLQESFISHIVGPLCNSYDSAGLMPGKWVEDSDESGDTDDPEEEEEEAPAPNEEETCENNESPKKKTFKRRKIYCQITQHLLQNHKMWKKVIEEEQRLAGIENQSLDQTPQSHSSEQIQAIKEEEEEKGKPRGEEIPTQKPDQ
Further: assay procedure not described here.

Compound | AC50 (Glucocorticoid receptor) | AC50 [1] | AC50 [2] | AC50 [3] | AC50 (Melanocortin receptor 3) | AC50 [4] | AC50 [5] | AC50 [6] | AC50 [7]
C[N+]1(C)CCC(=C(c2ccccc2)c2ccccc2)CC1 | > 10 µM | > 10 µM | > 30 µM | > 10 µM | > 30 µM | > 10 µM | > 10 µM | > 10 µM | > 30 µM
C[N+](C)(C)CCOP(=O)([O-])OC[C@H](O)CO | > 30 µM | > 30 µM | > 30 µM | > 30 µM | > 30 µM | > 30 µM | > 30 µM | > 30 µM | > 30 µM
CN(C)Cc1nnc2n1-c1ccc(Cl)cc1C(c1ccccc1)=NC2 [ADINAZOLAM] | > 10 µM | 0.19 µM | > 30 µM | > 10 µM | > 10 µM | > 10 µM | > 10 µM | > 10 µM | > 30 µM
CN(C)C/C=C/C(=O)Nc1cc2c(Nc3ccc(F)c(Cl)c3)ncnc2cc1O[C@H]1CCOC1 [AFATINIB] | > 30 µM | > 30 µM | > 30 µM | > 30 µM | 28 µM | > 30 µM | > 30 µM |  | > 30 µM
Cc1ccccc1-n1c(CF)nc2ccc(N)cc2c1=O [AFLOQUALONE] |  | > 10 µM | 13 µM | > 10 µM | > 30 µM | > 10 µM | 27.9 µM | > 10 µM | > 30 µM
CCC1(c2ccc(N)cc2)CCC(=O)NC1=O (configuration not stated) [AMINOGLUTETHIMIDE] | > 30 µM | > 30 µM | 9.5 µM | > 30 µM | > 30 µM | > 30 µM | > 30 µM | > 30 µM | 10 µM
O=C(/C=C/c1cccc(S(=O)(=O)Nc2ccccc2)c1)NO [BELINOSTAT] | > 30 µM | > 10 µM | 7.1 µM |  | > 30 µM | > 10 µM |  |  | > 30 µM
CC(Cc1cccc(C(F)(F)F)c1)NCCOC(=O)c1ccccc1 (configuration not stated) [BENFLUOREX] | > 30 µM |  |  | > 30 µM | > 30 µM |  |  |  | 
NC[C@H]1CC[C@H](C(=O)Oc2ccc(CCC(=O)O)cc2)CC1 [CETRAXATE] |  | > 30 µM | > 30 µM |  |  | > 30 µM |  | > 30 µM | > 30 µM
CNCCc1ccc(OC(=O)C(C)C)c(OC(=O)C(C)C)c1 [IBOPAMINE] | > 30 µM | > 30 µM | > 30 µM | > 30 µM | > 30 µM | > 30 µM | > 30 µM |  | > 30 µM
CN(Cc1cnc2nc(N)nc(N)c2n1)c1ccc(C(=O)N[C@@H](CCC(=O)O)C(=O)O)cc1 [METHOTREXATE] |  | > 10 µM | > 30 µM | > 10 µM | > 30 µM | > 10 µM | > 30 µM | > 10 µM | > 30 µM
CC(C)c1cccc(C(C)C)c1O [PROPOFOL] |  |  | > 30 µM | > 30 µM | > 30 µM |  | > 3 µM | > 30 µM | > 30 µM
C[C@]12CCC(=O)C[C@@H]1CC[C@@H]1[C@@H]2CC[C@]2(C)[C@@H](O)CC[C@@H]12 [STANOLONE] |  | > 30 µM | > 30 µM | > 30 µM | > 30 µM | > 30 µM | > 30 µM | > 30 µM | > 30 µM
O=C1OC(OC(=O)c2cccnc2Nc2cccc(C(F)(F)F)c2)c2ccccc21 (configuration not stated) [TALNIFLUMATE] | > 30 µM | > 30 µM | 5.2 µM | > 30 µM | > 30 µM | > 30 µM | > 30 µM |  | > 30 µM
C[C@]12C=CC(=O)C=C1CC[C@@H]1[C@@H]2CC[C@]2(C)OC(=O)CC[C@@H]12 [TESTOLACTONE] |  | > 10 µM | > 30 µM | > 30 µM | > 10 µM | > 10 µM | > 10 µM | > 30 µM | > 30 µM
